Results on eight compounds are retold here after ChEMBL document CHEMBL2086258, “Laxiflorolides A and B, epimeric bishomoditerpene lactones from Isodon eriocalyx” (J Nat Prod, 2012).

What all share (type): functional, cell-based
The test system of one experiment is SMMC-7721. Description: Cytotoxicity against human SMMC7721 cells after 48 hrs by MTT assay. Conditions: SMMC-7721, 48 h.
The subject of the next experiment is SW480. As to the kind of experiment: Cytotoxicity against human SW480 cells after 48 hrs by MTT assay. Conditions: SW480, 48 h.
The next experiment concerns MCF7. As to the kind of experiment: Cytotoxicity against human MCF7 cells after 48 hrs by MTT assay. The conditions noted are these: MCF7, 48 h.
The next experiment concerns A549. Description: Cytotoxicity against human A549 cells after 48 hrs by MTT assay. Conditions: A549, 48 h.
For the next experiment, the system named is HL-60. As to the kind of experiment: Cytotoxicity against human HL60 cells after 48 hrs by MTT assay. Conditions: HL-60, 48 h.

Take `C=C1[C@@H]2CC[C@H]3[C@]45CO[C@H](CC4=O)C(C)(C)C5=C(O)C(=O)[C@]3(C2)[C@@H]1O` (relative stereo): the IC50 was 21.5 µM in the experiment with SMMC-7721 (read-out: IC50); 20 µM in the experiment on SMMC-7721 (read-out: pIC50 (converted)); 15.4 µM in the experiment on SW480 (read-out: IC50); 15.8 µM in the experiment on SW480 (read-out: pIC50 (converted)); 12.9 µM in the experiment on MCF7 (read-out: IC50); 12.6 µM in the experiment on MCF7 (read-out: pIC50 (converted)). In addition, the IC50 in the experiment with A549 (read-out: IC50) was 24.9 µM; with A549 (read-out: pIC50 (converted)) it was 25.1 µM; with HL-60 (read-out: IC50), 9.9 µM; in the experiment on HL-60 (read-out: pIC50 (converted)), 9.9 µM.
For `C=C1C(=O)[C@]23C[C@H]1CC[C@H]2[C@@]12CO[C@]3(O)[C@@H](O)[C@@H]1C(C)(C)C=CC2=O` [ERIOCALYXIN B], the IC50 in the experiment on SMMC-7721 (read-out: IC50) was 0.8 µM; in the experiment with SMMC-7721 (read-out: pIC50 (converted)), 0.794 µM; with SW480 (read-out: IC50) it was 0.5 µM; with SW480 (read-out: pIC50 (converted)), 0.501 µM; with MCF7 (read-out: IC50), 0.6 µM; with MCF7 (read-out: pIC50 (converted)), 0.631 µM. Besides, the IC50 was 3.1 µM with A549 (read-out: IC50), 3.16 µM in the experiment with A549 (read-out: pIC50 (converted)), 0.3 µM with HL-60 (read-out: IC50) and 0.316 µM with HL-60 (read-out: pIC50 (converted)).
With `C[C@H]1C[C@](O)([C@@H]2CC[C@@H]3[C@@H](C2)C(=O)[C@@H](O)[C@@H]2C(C)(C)[C@H]4CC(=O)[C@@]32CO4)C(=O)O1` [LAXIFLOROLIDE A], the IC50 was over 40 µM in the experiment on SMMC-7721 (read-out: IC50); over 39.8 µM in the experiment with SMMC-7721 (read-out: pIC50 (converted)); over 40 µM with SW480 (read-out: IC50); over 39.8 µM in the experiment with SW480 (read-out: pIC50 (converted)); over 40 µM with MCF7 (read-out: IC50); over 39.8 µM in the experiment on MCF7 (read-out: pIC50 (converted)). Also, the IC50 with A549 (read-out: IC50) was over 40 µM; in the experiment on A549 (read-out: pIC50 (converted)), over 39.8 µM; with HL-60 (read-out: IC50) it was over 40 µM; with HL-60 (read-out: pIC50 (converted)) it was over 39.8 µM.
Turning to `C[C@@H]1C[C@](O)([C@@H]2CC[C@@H]3[C@@H](C2)C(=O)[C@@H](O)[C@@H]2C(C)(C)[C@H]4CC(=O)[C@@]32CO4)C(=O)O1` [LAXIFLOROLIDE B], the IC50 in the experiment with SMMC-7721 (read-out: IC50) is over 40 µM; in the experiment on SMMC-7721 (read-out: pIC50 (converted)), over 39.8 µM; in the experiment on SW480 (read-out: IC50), over 40 µM; in the experiment with SW480 (read-out: pIC50 (converted)), over 39.8 µM; in the experiment with MCF7 (read-out: IC50) it was over 40 µM; in the experiment on MCF7 (read-out: pIC50 (converted)), over 39.8 µM. Besides, the IC50 in the experiment with A549 (read-out: IC50) was over 40 µM; in the experiment on A549 (read-out: pIC50 (converted)), over 39.8 µM; in the experiment with HL-60 (read-out: IC50), over 40 µM; in the experiment on HL-60 (read-out: pIC50 (converted)) it was over 39.8 µM.
`C=C1C(=O)[C@]23C[C@H]1CC[C@H]2[C@]12CO[C@H](CC1=O)C(C)(C)C2=C(O)C3=O` [MAOECRYSTAL P]: the IC50 in the experiment with SMMC-7721 (read-out: IC50) was 2.8 µM; in the experiment on SMMC-7721 (read-out: pIC50 (converted)), 2.51 µM; in the experiment on SW480 (read-out: IC50), 2.1 µM; in the experiment with SW480 (read-out: pIC50 (converted)) it was 2 µM; in the experiment on MCF7 (read-out: IC50), 1.8 µM; with MCF7 (read-out: pIC50 (converted)), 2 µM. For the same compound, the IC50 was 6.3 µM in the experiment on A549 (read-out: IC50), 6.31 µM in the experiment with A549 (read-out: pIC50 (converted)), 1 µM in the experiment with HL-60 (read-out: IC50) and 1 µM in the experiment on HL-60 (read-out: pIC50 (converted)).
In the case of `CC1(C)[C@H]2[C@H](O)C(=O)[C@@H]3C[C@H](C(=O)O)CC[C@H]3[C@@]23CO[C@@H]1CC3=O` [LAXIFLORIN Q], the IC50 with SMMC-7721 (read-out: IC50) was over 40 µM; with SMMC-7721 (read-out: pIC50 (converted)), over 39.8 µM; in the experiment with SW480 (read-out: IC50), over 40 µM; in the experiment on SW480 (read-out: pIC50 (converted)), over 39.8 µM; in the experiment on MCF7 (read-out: IC50), over 40 µM; with MCF7 (read-out: pIC50 (converted)) it was over 39.8 µM. Further, the IC50 in the experiment on A549 (read-out: IC50) is over 40 µM; in the experiment on A549 (read-out: pIC50 (converted)) it was over 39.8 µM; in the experiment on HL-60 (read-out: IC50), over 40 µM; with HL-60 (read-out: pIC50 (converted)), over 39.8 µM.
Regarding `C=C(C=O)[C@@H]1CC[C@@H]2[C@@H](C1)C(=O)[C@@H](O)[C@@H]1C(C)(C)[C@H]3CC(=O)[C@@]21CO3` [LAXIFLORIN P], the IC50 in the experiment with SMMC-7721 (read-out: IC50) was 5.6 µM; in the experiment with SMMC-7721 (read-out: pIC50 (converted)), 5.01 µM; in the experiment on SW480 (read-out: IC50), 3.1 µM; in the experiment on SW480 (read-out: pIC50 (converted)), 3.16 µM; with MCF7 (read-out: IC50), 3.2 µM; with MCF7 (read-out: pIC50 (converted)) it was 3.16 µM. The IC50 with A549 (read-out: IC50) was 11.7 µM; with A549 (read-out: pIC50 (converted)) it was 12.6 µM; in the experiment on HL-60 (read-out: IC50), 3.8 µM; in the experiment on HL-60 (read-out: pIC50 (converted)), 3.98 µM.
With `C=C1[C@@H]2CC[C@H]3[C@@]45CO[C@](O)([C@@H](O)[C@@H]4C(C)(C)C=CC5=O)[C@]3(C2)[C@@H]1O` [MAOECRYSTAL C], the IC50 with SMMC-7721 (read-out: IC50) is over 40 µM; with SMMC-7721 (read-out: pIC50 (converted)), over 39.8 µM; in the experiment on SW480 (read-out: IC50) it was 14.5 µM; in the experiment with SW480 (read-out: pIC50 (converted)), 15.8 µM; in the experiment with MCF7 (read-out: IC50), 14.4 µM; in the experiment on MCF7 (read-out: pIC50 (converted)), 15.8 µM. Besides, the IC50 was over 40 µM with A549 (read-out: IC50), over 39.8 µM in the experiment with A549 (read-out: pIC50 (converted)), 18.9 µM with HL-60 (read-out: IC50) and 20 µM in the experiment on HL-60 (read-out: pIC50 (converted)).
